In patent US10905736B2, “Ezetimibe-associated ApoA-I mimetic peptides showing enhanced synergism” (The Regents of the University of California, priority 2016, dated 2021):
Entries after “also recorded” stand apart in the source; their conditions may differ.

Tests used:
[1] = system: cholesterol-fed monkeys; conditions: cited from earlier work
[2] = system: Niemann-Pick C1-like 1 (NPC1L1) protein; conditions: by targeting NPC1L1; cited from earlier work
[3] = system: LDLR null mice; experiment: Plasma lipid levels (total cholesterol, triglycerides, HDL-cholesterol) in LDLR null mice fed Western diet for two weeks; assay type: in vivo, mouse
Description: Res. Per. 3: e00154; Chattopadhyay et al. (2016) J. Lipid Res. 57: 832-847; PCT Pub. Nos: WO 2013/148214 (PCT/US2013/031037), WO 2015/175968 (PCT/US2015/031134)) (Tg6F), or the mice were fed WD with Ezetimibe added to give a daily dose of 10 mg/kg body weight/day (WD+Ezetimibe), or the mice were fed WD with Tg6F added at 0.06% by weight plus Ezetimibe (each added separately to the diet) to give a daily dose of Ezetimibe of 10 mg/kg body weight; the Tg6F and Ezetimibe were mixed into WD as described previously (Chattopadhyay et al. (2016) J. Lipid. Res. 57: 832-847) (Combined Formulation), or the mice were fed WD to which was added ezetimibe-associated transgenic 6F peptide (Ez-tg6F) at 0.06% Tg6F by weight containing sufficient Ezetimibe to give a daily dose of 10 mg/kg body weight/day that was prepared as described herein. Specifically, the ezetimibe-associated Tg6F peptide (Ez-Tg6F) was made by adding the ezetimibe directly to a solution of ethyl acetate 5% acetic acid that had been incubated overnight at room temperature with freeze-dried tomato powder obtained from transgenic tomatoes expressing the 6F peptide, and which had been removed to a separate vessel as described previously (see, e.g., Chattopadhyay et al. (2015) Pharma. Res. Per. 3: e00154; Chattopadhyay et al. (2016) J. Lipid. Res. 57: 832-847) prior to addition of the ezetimibe. After the addition of the ezetimibe, the solution was incubated at room temperature with gentle mixing for two hours prior to processing and addition of the resulting freeze-dried powder to WD as previously described (Chattopadhyay et al. (2016) J. Lipid. Res. 57: 832-847). After feeding the diets for two weeks, the mice were bled and total plasma cholesterol levels were determined as described (Id.). NS=Not Significant.
LDLR-null mice originally purchased from Jackson Laboratories on a C57BL/6J background were obtained from the breeding colony of the Department of Laboratory and Animal Medicine at the David Geffen School of Medicine at UCLA. The gender and age of the mice are stated in the legend to each figure. The mice were maintained on standard mouse chow (Ralston Purina) before being switched to a Western diet WD (Teklad, Harlan, catalog #TD88137).
In experiments in which Tg6F or EV or Ezetimibe were administered as single agents, the EV or Tg6F concentrate was added to WD at 0.06% by weight or Ezetimibe was added to WD to give a final dose of 10 mg/kg body weight/day. The EV or Tg6F concentrate or Ezetimibe was mixed into the diets as described (Chattopadhyay et al. (2015) Pharma. Res. Per. 3: e00154). […]

Structure (SMILES): O=C1[C@H](CC[C@H](O)c2ccc(F)cc2)[C@@H](c2ccc(O)cc2)N1c1ccc(F)cc1 [Ezetimibe, (3R,4S)-1-(4-fluorophenyl)-3-[(3S)-3-(4-fluorophenyl)-3-hydroxypropyl]-4-(4-hydroxyphenyl)azetidin-2-one]
- ED50 value (median effective dose) for inhibiting the rise in plasma cholesterol levels [1]: 0.5 µg/kg/day
- transintestinal cholesterol efflux (TICE) [2]: promotes TICE
- dyslipidemia (plasma total cholesterol, triglycerides, HDL-Cholesterol) ([3]; female LDLR null mice age 3-6 months, n=20-28 per group, WD two weeks, Tg6F 0.06% by weight, Ezetimibe 10 mg/kg/day, FIG. 15): significantly ameliorated dyslipidemia
- plasma triglyceride levels ([3]; statement over the experiments of Example 3 (single agents five out of five, Combined Formulation five out of five, Novel Method three out three experiments)): equally effective; also recorded: improved plasma total cholesterol and triglyceride levels
- plasma total cholesterol levels ([3]; statement over the experiments of Example 3 (single agents five out of five, Combined Formulation four out of five, Novel Method three out three experiments)): equally effective; also recorded: improved plasma total cholesterol and triglyceride levels
- plasma HDL-cholesterol levels ([3]; statement over the experiments of Example 3 (single agents four out of four, Combined Formulation four out of four, Novel Method two out of two experiments)): equally effective; also recorded: significantly increased the levels
